Experimental findings from patent publication US7745473B2, “Indole derivative for alkylating specific base sequence of DNA and alkylating agent and drug containing the derivative” (Kyoto University, priority 2004, dated 2010) are described below.

The nature of series [1]: Stability under acidic and alkaline conditions by HPLC. The series is classed as physicochemical. The protocol: Analysis of stability under acidic and alkaline conditions by HPLC was performed by the following process: A reaction solution containing compound (3-1) or (4-1) (100 μM) in a total volume of 10 μL of an aqueous solution of 5% HCl (pH=1, DMF:H2O=1:9) or an aqueous solution of 5% NaHCO3 (pH=9, DMF:H2O=1:9) was charged into a microfuge tube (Eppendorf) and left standing at 37° C. After 30 minutes, 2 hours, and 24 hours, analysis of compound (4-1) (16.8 min) and compound (3-1) (15.1 min) was performed by HPLC (linear gradient of acetonitrile 0-100% in 50 mM ammonium formate, 20 min, flow rate: 1.0 mL/min, 254 nm).
The Py-Im polyamide containing the indole linker was evaluated for stability by product analysis on HPLC using compounds (4-1) and (3-1). […] Compound (4-1) was converted into compound (3-1) (30 minutes: 50%, 2 hours: 78%) in the alkaline aqueous NaHCO3 solution (pH=9) (left standing at 37° C. for 24 hours). […] Compound (3-1) was readily converted into compound (4-1) (30 minutes: 96%) in the acidic aqueous HCl solution (pH=1) (37° C.).

For series [2], the system named is long-chain DNA (pUC-II′; SEQ ID NO:7). As to the kind of experiment: DNA alkylation of 5′-Texas Red-labeled long-chain DNA, analysed by polyacrylamide gel electrophoresis. Conditions: 23° C., 8 hours, FIG. 1. The series is classed as biochemical. The protocol: A 5′-Texas Red-labeled DNA fragment (450 bp) (pUC-II′, SEQ ID NO:7) was prepared by a PCR method using the 5′-Texas Red-labeled 19-base-pair primer (pUC18 forward, 328-345; SEQ ID NO:6) and the 21-base-pair primer (pUC18 reverse, 1861-1881; SEQ ID NO:5), puc18 being used as a template.
The reaction of compounds (3-1) and (4-1) prepared in the above-described Synthesis Examples with DNA was studied using the long-chain DNA (pUC-II′; SEQ ID NO:7). An alkylation reaction was performed at 23° C. for 8 hours. The sequence alkylated was analyzed by polyacrylic gel electrophoresis for sequence determination. […] This sequence specificity can be explained by a model in which each compound dimerizes in the DNA minor groove to recognize the base sequence.
Analysis by polyacrylamide gel electrophoresis was performed by the following process: A standard reaction solution containing the 5′-Texas Red-end-labeled DNA fragment (10 nM), DMF (10% (v/v)), and an agent having a concentration described above in a sodium phosphate buffer (5 mM, total volume: 10 μL, pH=7.0) was charged into a microfuge tube (Eppendorf) and left standing at 23° C. for 8 hours. After completion of the reaction, the reaction was quenched by the addition of calf thymus DNA (1 mM, 1 μL). The resulting mixture was shaken at 90° C. for 5 minutes. […]

Series [3] relates to long-chain DNA (pUC-II; SEQ ID NO:4, pUC-I′; SEQ ID NO:1). Described as above. It is filed as biochemical. The protocol: A 5′-Texas Red-labeled DNA fragment (450 bp) (pUC-I′, SEQ ID NO:1) was prepared by a PCR method using a 5′-Texas Red-labeled 20-base-pair primer, i.e., 5′-TexRed-[…]-3′ (pUC18 forward, 780-799; SEQ ID NO:2), and a 20-base-pair primer, i.e., 5′-[…]-3′ (pUC18 reverse, 1459-1478; SEQ ID NO:3), puc18 being used as a template. The DNA fragment was in a double-stranded state including a complementary strand (the following fragments were in the same state).
A 5′-Texas Red-labeled DNA fragment (450 bp) (pUC-II, SEQ ID NO:4) was prepared by a PCR method using a 5′-Texas Red-labeled 21-base-pair primer, i.e., 5′-TexRed-[…]-3′ (pUC18 reverse, 1861-1881; SEQ ID NO:5), and a 19-base-pair primer, i.e., 5-TGTAAAACGACGGCCAGTG-3′ (pUC18 forward, 328-345; SEQ ID NO:6), puc18 being used as a template.
(§1) Analysis by polyacrylamide gel electrophoresis was performed by the following process: A standard reaction solution containing the 5′-Texas Red-end-labeled DNA fragment (10 nM), DMF (10% (v/v)), and an agent having a concentration described above in a sodium phosphate buffer (5 mM, total volume: 10 μL, pH=7.0) was charged into a microfuge tube (Eppendorf) and left standing at 23° C. for 8 hours. After completion of the reaction, the reaction was quenched by the addition of calf thymus DNA (1 mM, 1 μL). The resulting mixture was shaken at 90° C. for 5 minutes. The DNA obtained by centrifugation under reduced pressure was dissolved by the addition of 8 μl, of loading dye (fushin red solution in DMF), shaken at 94° C. for 20 minutes, and then immediately cooled to 0° C. A 2-μL aliquot was separated electrophoretically on a 6% denaturing polyacrylamide gel using a Hitachi 5500-S DNA sequencer. The following tests were conducted in a similar way.
The reaction of compounds (3-2) and (3-3) prepared in the above-described Synthesis Examples with DNA was studied using the long-chain DNA (pUC-II; SEQ ID NO:4, pUC-I′; SEQ ID NO:1). An alkylation reaction was performed for 8 hours. The sequence alkylated was analyzed by polyacrylic gel electrophoresis for sequence determination. […] However, the difference in sequence recognition ability was observed. […] From the stand point of the sequence recognition ability, the molecular design of compound (3-2) was excellent.

The test system of series [4] is long-chain DNA (λ-F10906; SEQ ID NO:8). The series is described as above. Conditions: λ-F10906, nanomolar concentrations, FIG. 4. It is filed as biochemical. The protocol: A 5′-Texas Red-labeled DNA fragment (537 bp) (λ-F10906; SEQ ID NO:8) was prepared by a PCR method using a 5′-Texas Red-labeled 23-base-pair primer, i.e., 5′-TexRed-[…]-3′ (λ-DNA forward, 10960-10982; SEQ ID NO:9), and a 20-base-pair primer, i.e., 5′-[…]-3′ (λ-DNA reverse, 37007-37026; SEQ ID NO:10), λ-DNA being used as a template.
as §1
The reaction of compounds (3-2), (3-4), and (3-5) with DNA was studied using the long-chain DNA (λ-F10906; SEQ ID NO:8). The DNA-alkylating ability of each compound was evaluated.

Series [5] deals with human ER(+) breast cancer Br-10. As to the kind of experiment: Antitumor activity against transplantable human breast cancer in nude mice. The series is classed as in vivo, BALB/cA-nu/nu mice. Conditions: for T/C (%): treated group / control group ×100. On the procedure: Antitumor activity of compound (4-2) against transplantable human ER(+) breast cancer Br-10 in nude mice was studied. Human ER(+) breast cancer Br-10 was subcutaneously transplanted in dorsal portions of 8-week-old BALB/cA-nu/nu mice through a trocar. Injection of 0.1 mL of EP Hormone Depot was intramuscularly administered in Br-10-transplant mice simultaneously with the transplantation. When the tumor volume reached about 100 mm^3, the mice were divided into 5 mice/group, and then the administration started.
Compound (4-2) was dissolved in ethanol, diluted with physiological saline, and subcutaneously injected in divided doses into 3 or 4 portions near the tumor once a day and 3 times every 3 days. The dose of compound (4-2) was 50 mg/kg (about 1 mg/mouse) in a volume of 0.05 mL/10 g. Physiological saline was subcutaneously injected in the control group. The length of the major axis (L) and the length of the minor axis (W) were measured every 3 days. The tumor volume was calculated with the following formula: Tumor volume (mm^3)=L(mm)×W^2(mm^2)/2 Comparison of the tumor volume between the compound (4-2) treated group and the control group was performed. […] Values shown in the table show relative estimation of each group when the tumor volume after 1 day in each group is defined as 1.0; and relative estimation calculated with (tumor volume of compound (4-2) treated group: T)/(tumor volume of control group: C)×100%.

Setting [6] is: 8 hours, pUC-II and pUC-I′, FIG. 2.

Entries after “also recorded” stand apart in the source; their conditions may differ.

As for `CC(=O)Nc1cn(C)c(C(=O)Nc2cn(C)c(C(=O)Nc3ccc4[nH]c(C(=O)N5CC6CC67C5=CC(=O)c5ccccc57)cc4c3)n2)n1` (centres unmarked) [compound (3-1), AcImIm-Indole-CBI], in series [1] (acidic aqueous HCl solution pH=1, 37° C., 30 minutes), the “conversion into compound (4-1)” value is reported as 96%. The “sequence-specific DNA alkylation” value in series [2] is reported as “selectively alkylated adenine located at site 1 (5′-CGGCCA-3′) at nanomolar concentrations”.

For the molecule `CC(=O)Nc1cn(C)c(C(=O)Nc2cn(C)c(C(=O)Nc3cc(C(=O)NCCCC(=O)Nc4cn(C)c(C(=O)Nc5ccc6[nH]c(C(=O)N7CC8CC89C7=CC(=O)c7ccccc79)cc6c5)n4)n(C)c3)n2)n1` (centres unmarked) [compound (3-3), AcImImPy-γ-Im-Indole-CBI], in series [3] (setting [6]), the “alkylated sites (sequence recognition ability)” value was “alkylation of site 4 (5′-AGCCA-3′), which was a match sequence, was observed; also recorded: single-base-pair mismatch sequences in site 1 (5′-AGCTA-3′), site 2 (5′-AGTCA-3′), site 5 (5′-TACCA-3′), and the like were also observed”; the “efficiency of DNA alkylation” value is listed as “efficient DNA alkylation comparable with that of a known Py-Im polyamide having a vinyl linker was observed at nanomolar concentrations”. Further, the “alkylation of guanine at match site 5′-TGCCG-3′” value in series [3] (pUC-I′ (SEQ ID NO:1)) was “no alkylation of guanine was observed”.

In the case of `CC(=O)Nc1cn(C)c(C(=O)Nc2cn(C)c(C(=O)Nc3cc(C(=O)Nc4cc(C(=O)NCCCC(=O)Nc5cc(C(=O)Nc6cc(C(=O)Nc7ccc8[nH]c(C(=O)N9CC%10CC%10%11C9=CC(=O)c9ccccc9%11)cc8c7)n(C)c6)n(C)c5)n(C)c4)n(C)c3)n2)n1` (centres unmarked) [compound (3-4), AcImImPyPy-γ-PyPy-Indole-CBI], the “sequence-specific DNA alkylation, alkylated sites” value in series [4] is on record as “Sequence-specific DNA alkylation (site 6: 5′-AATCCA-3′, site 7: 5′-TAACCA-3′)”.

Regarding `CC(=O)Nc1cn(C)c(C(=O)Nc2cc(C(=O)Nc3cc(C(=O)Nc4cc(C(=O)NCCCC(=O)Nc5cn(C)c(C(=O)Nc6cc(C(=O)Nc7ccc8[nH]c(C(=O)N9CC%10CC%10%11C9=CC(=O)c9ccccc9%11)cc8c7)n(C)c6)n5)n(C)c4)n(C)c3)n(C)c2)n1` (centres unmarked) [compound (3-5), AcImPyPyPy-γ-ImPy-Indole-CBI], in series [4], the “sequence-specific DNA alkylation, alkylated sites” value was “alkylation of an only mismatch sequence (site 1: 5′-TGCTCA-3′) was observed”.

Take `CC(=O)Nc1cn(C)c(C(=O)Nc2cn(C)c(C(=O)Nc3ccc4[nH]c(C(=O)N5CC(CCl)c6c5cc(O)c5ccccc65)cc4c3)n2)n1` (centres unmarked) [compound (4-1), AcImIm-Indole-seco-CBI]: the “conversion into compound (3-1)” value in series [1] (alkaline aqueous NaHCO3 solution pH=9, 37° C., 30 minutes) was determined as 50%; in series [1] (alkaline aqueous NaHCO3 solution pH=9, 37° C., 2 hours), 78%. For the same molecule, in series [1] (alkaline aqueous NaHCO3 solution pH=9, 37° C., 24 hours), the “formation of other hydrolysates” value is recorded as “No other hydrolysates were formed”. Also, the “hydrolysis in acidic aqueous HCl solution” value in series [1] (pH=1, 37° C., 24 hours) is recorded as “not hydrolyzed at all”. The “sequence-specific DNA alkylation” value in series [2] was “selectively alkylated adenine located at site 1 (5′-CGGCCA-3′) at nanomolar concentrations”.

For the molecule `CC(=O)Nc1cn(C)c(C(=O)Nc2cn(C)c(C(=O)Nc3cc(C(=O)Nc4cc(C(=O)NCCCC(=O)Nc5cn(C)c(C(=O)Nc6cc(C(=O)Nc7ccc8[nH]c(C(=O)N9CC(CCl)c%10c9cc(O)c9ccccc%109)cc8c7)n(C)c6)n5)n(C)c4)n(C)c3)n2)n1` (centres unmarked) [compound (4-2), AcImImPyPy-γ-ImPy-Indole-seco-CBI], the “suppression of tumor growth” value in series [5] (50 mg/kg subcutaneous near the tumor, Br-10 in nude mice) is recorded as “suppression of tumor growth was observed after the first administration”. The “toxicity (weight loss of mice and the like)” value in series [5] (50 mg/kg subcutaneous, nude mice) is “toxicity that causes the weight loss of mice and the like was not observed”. For the same molecule, the “relative tumor volume (after 1 day = 1.0)” value was 1.0 in series [5] (after 1 day, 50 mg/kg subcutaneous near the tumor); 1.1 in series [5] (after 4 days, 50 mg/kg subcutaneous near the tumor); 1.4 in series [5] (after 7 days, 50 mg/kg subcutaneous near the tumor); 1.4 in series [5] (after 10 days, 50 mg/kg subcutaneous near the tumor); 1.5 in series [5] (after 13 days, 50 mg/kg subcutaneous near the tumor); 2.0 in series [5] (after 16 days, 50 mg/kg subcutaneous near the tumor). For the same molecule, the “T/C (%)” value is 100% in series [5] (after 1 day); 78.6% in series [5] (after 4 days); 82.4% in series [5] (after 7 days); 66.7% in series [5] (after 10 days); 55.6% in series [5] (after 13 days); 64.5% in series [5] (after 16 days).
